Assay results: patent publication US11730734B2, “Use of ATR and Chk1 inhibitor compounds” (University of Florida Research Foundation, Incorporated, priority 2016, dated 2023)
Entries after “also recorded” stand apart in the source; their conditions may differ.

Columns and labels:
[1] = test system: Chk1; experiment: Chk1 activation (pChk1 S345 Western blot) in HSV-1 infected cells; assay type: cell-based
Protocol: 5×10^5 cells were plated on 6-well plates and infected the following day with 17syn+(MOI=10). At the indicated times, cells were lysed in buffer containing 1% NP-40, 150 mM sodium chloride, 20 mM Tris-HCL pH 8.0, 2 mM EDTA, and 5% glycerol supplemented with phosphatase and protease inhibitor cocktails (Roche, PhosSTOP tablets; catalog no. 04906837001; ThermoFisherSci., Halt Protease Inhibitor Cocktail, catalog no. 1862209). For SDS-PAGE, 20 ug of protein was mixed with NuPAGE 4×LDS sample buffer (ThermoFisher Sci., catalog no. NP0007) along with NuPAGE Sample Reducing Agent (ThermoFisher Sci., catalog no. NP0004) and run on 4-12% Bis-Tris NuPAGE gels (ThermoFisher Sci.) with NuPAGE MOPS SDS running buffer (ThermoFisher Sci., catalog no. NP000102). Gels were transferred onto 0.22 μm PVDF in Towbin buffer (0.2 M Glycine, 25 mM Tris Base) containing 20% MeOH for 2 h under constant voltage (30V), the membrane blocked with 5% non-fat dry milk (NFDM)-TBST (20 mM Tris-HCL pH 7.4, 150 mM NaCl, 0.1% Tween-20) and probed with antibodies diluted in 1% NFDM-TBST overnight at 4° C. For ATR and ATM western blots, samples were processed as above except DTT (50 mM, Cell Signaling, catalog no. 7016) was used as the reducing agent and samples were run on NuPAGE Novex 3-8% Tris-acetate gels (ThermoFisher Sci.) with NuPAGE Tris-acetate SDS running buffer (ThermoFisher Sci., catalog no. LA0041). […]

[2] = test system: Chk1; experiment: Chk1 activation following KD6 infection of permissive Vero cell line K5; assay type: cell-based; details: KD6 infection of Vero cell line K5, cycloheximide
[3] = test system: ATR; experiment: ATR activation (pATR S428 immunofluorescence) in HSV-1 infected U2OS cells; assay type: cell-based; details: for ATR activation (pATR labeling): 5 h
Protocol: (§1) Cells were plated at 5×10^5 cells per well in 6-well plates and the following morning incubated with inhibitors. Following 1 h pre-incubation with inhibitors, cells were infected with HSV-1 at an MOI=0.1 in a volume of 200 uL for 1 h, viral inoculum removed, and cells overlaid with media containing fresh inhibitors, and cultured for 48 h. Following 48 h, cells and supernatant were harvested by scraping, separated into two Eppendorf tubes, and centrifuged at 10,000×g for 40 min. The cell pellet from one tube was used for extraction of DNA (DNazol according to manufacturer's recommendation, ThermoFisher Sci. catalog no. 10503027) and the second pellet was re-suspended in 200 uL serum-free MEM, freeze-thawed 3×, and virus titered on rabbit skin cells. For HSV-1 titering, rabbit skin cells were plated at 150,000 cells/well of 24-well plates and the following day infected with 10-fold serial dilutions of virus harvested from antiviral experiments. Cells were incubated for 48 h, stained with 1% crystal violet solution, and plaques counted from three separate wells for each experimental sample. Q-PCR was conducted using 20 ng input DNA, TaqMan® Fast Universal PCR 2× Master Mix (Applied Biosystems, catalog no. 4352041) along with TaqMan probes and target-specific primers (Applied Biosystems, Assays by Design part no. 4331348) against HSV-1 polymerase. Samples were run on a StepOnePlus Real-Time PCR System (Applied Biosystems) using fast cycling: denaturation at 95° C. for 20 sec followed by 40 cycles at 95° C. for 1 sec and 60° C. for 20 sec. Additional experimental compounds were also tested as follows: […] Cyclohexamide (Sigma, catalog no. C7698) or DMSO vehicle was added to the overlay media at 50 ug/mL and the infection allowed to proceed for 5 h. (2) For replication inhibition, phosphonoacetic acid (PAA) was added at time of virus adsorption and included in overlay media at 400 ug/mL for 5 h. (3) A final [3 mM] hydroxyurea was added at the time of cell plating and incubated for 18 h. […]

[4] = test system: viral replication centers; experiment: Viral replication center formation / maturation (immunofluorescence); assay type: cell-based, HSV-1; details: for replication center formation: 5 h
Protocol: as §1

[5] = test system: 17+HSV-1; experiment: Antiviral assay, HSV-1 titering (viral titer / PFU on rabbit skin cells); assay type: cell-based; details: U2OS cells, 17+HSV-1 MOI=0.1, 48 h; ATR inhibitors 10 μM, Chk1 inhibitors 250 nM, aphidicolin 4 μM, KU55933 10 μM, Chk2 inhibitor II 5 μM, NU7441 1 μM
[6] = test system: ICP8; experiment: ICP8 expression in HSV-1 infected cells (data not shown); assay type: cell-based; details: VE-822 10 μM
Protocol: (§2) U2OS cells were plated onto coverslips at 75,000 cells per well of 24-well plates and the following day infected at an MOI=10 for the indicated times.
(§3) Thereafter, cells were processed for immunofluorescence in one of two ways that incorporated an Fc receptor blocking step: (1) cells were fractionated in situ by pre-extraction following previously published procedures; briefly, cells were incubated in Cytoskeleton Buffer (CB; 100 mM PIPES, 300 mM sucrose, 100 mM NaCl, 3 mM MgCl2, 1 mM EGTA) for 5 min on ice followed by incubation in Cytoskeleton Stripping Buffer (CSK; 10 mM Tri-HCL pH 7.4, 10 mM NaCl, 3 mM MgCl2, 1% Tween-40, 1% Tween-20, 0.5% sodium deoxycholate) for 5 min on ice. Cells were then washed 3× with PBS and fixed with Streck fixative (150 mM 2-bromo-2-nitro-1,3-propanediol, 108 mM diazolidinyl urea, 10 mM sodium citrate, 50 mM EDTA) for 30 min at RT, washed with PBS, and permeabilized with 0.5% Triton X-100 in 100 mM Tris-HCL pH 7.4 plus 50 mM EDTA for 15 min at RT. Cells were then incubated sequentially with Fc Receptor Blocker (Innovex Biosciences, catalog no. NB309) for 30 min at RT followed by blocking buffer (5% goat serum, 0.1% NP-40, 20 mM Tris-HCL pH 7.4, 150 mM NaCl) for 30 min at RT. (2) In some cases cells were fixed in 3.7% paraformaldehyde in PBS for 5 min at RT followed by blocking with Fc Receptor Blocker and blocking buffer as above. […]

[7] = test system: ICP4; experiment: ICP4 expression by immunofluorescence in HSV-1 infected cells; assay type: cell-based; details: VE-822 10 μM, 17+HSV-1 MOI=10, 5 h.p.i.
Protocol: as §2, §3

Which results are given for C[C@@H]1C[C@@H]([C@H](O)CC2CC(=O)NC(=O)C2)C(=O)[C@@H](C)C1 [cycloheximide]?
Chk1 activation ([1]; cycloheximide): complete suppression; Chk1 activation [2]: blocked; ATR activation (pATR labeling) ([3]; cycloheximide 50 ug/mL in overlay media): completely blocked ATR activation; also recorded: complete suppression; also recorded: completely suppresses pATR labeling; replication center formation ([4]; cycloheximide 50 ug/mL): retards replication center formation

With O=C(O)CP(=O)(O)O [PAA, phosphonoacetic acid] as the compound, how does the “ATR activation (pATR labeling)” value ([3]; PAA 400 ug/mL from virus adsorption) read?
The value was “partially suppressed ATR activation; also recorded: partial suppression; also recorded: partially blocks pATR labeling”.

What about the replication center formation ([4]; PAA 400 ug/mL) of the same compound?
Its replication center formation is “retards replication center formation”.

How did the “viral titers (HSV-1 PFU, virus production)” value [5] turn out when Cn1cc(-c2[nH]c3cc(NC(=O)[C@H](N)C4CCCCC4)cc4c3c2C=NNC4=O)cn1 [PF477736] was run?
Its value is “significantly impact virus production”.

For C[C@@]1(CO)[C@H](O)CC[C@@]2(C)[C@H]1CC[C@H]1C[C@@H]3C[C@@]12CC[C@]3(O)CO [aphidicolin], which “viral titers (HSV-1 PFU, virus production)” value [5] is on record?
The value was “significantly inhibit viral titers; also recorded: significantly impact virus production”.

CNCc1ccc(-c2cc(-c3nc(-c4ccc(S(=O)(=O)C(C)C)cc4)cnc3N)on2)cc1 [VE-822] was tested. Which “Chk1 activation / phosphorylation” value ([1]; VE-822 10 μM, 17+HSV-1 MOI=10, Western blot) did it give?
The value was “Chk1 activation was also blocked; also recorded: blocks activation of both ATR and Chk1; also recorded: blocks phosphorylation of Chk1”.

And the “expression of ICP8” value [6]?
Its value is “blocked expression; also recorded: blocking expression of both ICP4 and ICP8”.

And the “ATR activation (pATR)” value ([3]; VE-822 10 μM, 17+HSV-1 MOI=10, 5 h.p.i.)?
The value was “blocked ATR activation; also recorded: blocks activation of both ATR and Chk1”.

And the “expression of ICP4” value [7]?
The value was “blocked expression of ICP4; also recorded: blocking expression of both ICP4 and ICP8”.

And the “maturation of replication centers” value ([4]; VE-822, during HSV-1 infection)?
Its value is “blocks maturation of replication centers”.
